According to ChEMBL document CHEMBL1268992, “Kojyl thioether derivatives having both tyrosinase inhibitory and anti-inflammatory properties” (Bioorg Med Chem Lett, 2010):

Columns and labels:
Tyrosinase = biological target: T1, Tyrosinase (Agaricus bisporus, UniProt O42713)
T1 sequence (O42713 whole entry): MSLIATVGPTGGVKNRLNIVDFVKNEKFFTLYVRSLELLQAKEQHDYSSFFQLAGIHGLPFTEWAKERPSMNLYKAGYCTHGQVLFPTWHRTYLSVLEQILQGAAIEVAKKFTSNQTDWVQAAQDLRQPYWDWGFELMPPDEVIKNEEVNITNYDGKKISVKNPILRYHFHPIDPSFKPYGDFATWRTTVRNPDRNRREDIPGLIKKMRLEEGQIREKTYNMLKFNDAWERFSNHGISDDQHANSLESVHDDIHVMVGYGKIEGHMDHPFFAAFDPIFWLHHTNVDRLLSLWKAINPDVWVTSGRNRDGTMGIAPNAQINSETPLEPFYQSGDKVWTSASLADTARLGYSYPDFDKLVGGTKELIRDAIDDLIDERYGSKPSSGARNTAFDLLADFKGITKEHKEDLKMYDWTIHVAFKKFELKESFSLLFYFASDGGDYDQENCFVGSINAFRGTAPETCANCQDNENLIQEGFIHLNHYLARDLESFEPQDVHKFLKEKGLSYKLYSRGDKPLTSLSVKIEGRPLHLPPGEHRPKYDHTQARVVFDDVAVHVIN
Description: Inhibition of mushroom tyrosinase after 20 mins by microplate reader analysis

RAW264.7 [1] = experiment: cells; conditions: Mus musculus
Description: Antiinflammatory activity in mouse RAW264.7 cells assessed as inhibition of LPS-induced nitric oxide production treated for 30 mins before LPS challenge measured after 24 hrs by Griess reagent method

RAW264.7 [2] = experiment: cells; conditions: Mus musculus, RAW264.7, 24 h
Description: Cytotoxicity against mouse RAW264.7 cells after 24 hrs by MTT assay

Structure (SMILES)	IC50 (Tyrosinase)	IC50 (RAW264.7 [1])	IC50 (RAW264.7 [2])
CCSCc1cc(=O)c(O)co1	2.6 µM	> 100 µM	> 100 µM
CCCSCc1cc(=O)c(O)co1	1.93 µM	> 100 µM	> 100 µM
CCCCSCc1cc(=O)c(O)co1	1.48 µM	> 100 µM	> 100 µM
CCCCCSCc1cc(=O)c(O)co1	0.097 µM	62 µM	> 100 µM
CCCCCCSCc1cc(=O)c(O)co1	0.19 µM	25.8 µM	> 100 µM
CCCCCCCSCc1cc(=O)c(O)co1	2.65 µM	> 100 µM	98.3 µM
CCCCCCCCSCc1cc(=O)c(O)co1	46.2 µM	> 100 µM	> 100 µM
O=c1cc(CSC2CCCCC2)occ1O	0.087 µM	56.9 µM	> 100 µM
CCCCC[S+]([O-])Cc1cc(=O)c(O)co1 (configuration not stated)	79.9 µM	> 100 µM	> 100 µM
CCCCCC[S+]([O-])Cc1cc(=O)c(O)co1 (configuration not stated)	73.8 µM	> 100 µM	> 100 µM
O=c1cc(C[S+]([O-])C2CCCCC2)occ1O (configuration not stated)	79 µM	> 100 µM	> 100 µM
CCCCCS(=O)(=O)Cc1cc(=O)c(O)co1	76.6 µM	> 100 µM	> 100 µM
CCCCCCS(=O)(=O)Cc1cc(=O)c(O)co1	49.1 µM	> 100 µM	> 100 µM
O=c1cc(CS(=O)(=O)C2CCCCC2)occ1O	69 µM	> 100 µM	> 100 µM
